# Reference: patent US7112598B2, “κ opioid receptor agonist comprising 2-phenylbenzothiazoline derivative” (Santen Pharmaceutical Co., Ltd., priority 2002, dated 2006)
# Structures can show the parent of a compound that is named as a salt.
# System: mouse acetic acid writhing
# Test: Antinociceptive action test by mouse acetic acid writhing method
# Type: in vivo
# Details: 30 mg/kg oral, 20 min before 0.7% acetic acid i.p., writhing counted 10 to 20 minutes after acetic acid, vs vehicle group, average of seven samples, Hydrochloride, 30 mg/kg
# Procedure: 2. Antinociceptive Action Tests by Mouse Acetic Acid Writhing Method
# Accordingly, antinociceptive action tests of test compounds were carried out using the mouse acetic acid writhing method, and analgesic effects of the test compounds were evaluated.
# Twenty minutes after oral administration of the test compound (30 mg/kg), the 0.7% acetic acid solution was administered intraperitoneally in a rate of 0.1 ml per 10 g of mouse weight.
# Inhibition rates were calculated according to the following equation.
# The antinociceptive action of the test compound was expressed in an inhibition rate to writhing numbers of a vehicle group.
row,Compound,Inhibition rate (%)
1,"COc1ccc(OCCCN(CCO)C(C)C)c(C2Sc3cc(Cl)ccc3N2C(C)=O)c1 (single isomer, unassigned; (+)) [Compound No. 9-2, (+)-3-Acetyl-6-chloro-2-[2-(3-(N-(2-hydroxyethyl)-N-isopropylamino)-propoxy)-5-methoxyphenyl]benzothiazoline Hydrochloride]",81.2
2,"CCOCCN(CCCOc1ccc(OC)cc1C1Sc2cc(Cl)ccc2N1C(C)=O)C(C)C (single isomer, unassigned; (+)) [Compound No. 9-3, (+)-3-Acetyl-6-chloro-2-[2-(3-(N-(2-ethoxyethyl)-N-isopropylamino)-propoxy)-5-methoxyphenyl]benzothiazoline Hydrochloride]",100.0

# Same assay, conditions: 30 mg/kg oral, 20 min before 0.7% acetic acid i.p., writhing counted 10 to 20 minutes after acetic acid, vs vehicle group, average of seven samples, read-out: Inhibition rate (%)
row,Compound,inhibition in vivo at 30 mg/kg [%]
1,"COCCN(CCCOc1ccc(OC)cc1C1Sc2cc(Cl)ccc2N1C(C)=O)C(C)C.Cl (single isomer, unassigned; (+)) [Compound No. 9-1, (+)-3-Acetyl-6-chloro-2-[2-(3-(N-isopropyl-N-(2-methoxyethyl)amino)-propoxy)-5-methoxyphenyl]benzothiazoline Hydrochloride]",97.7

# Target: human κ opioid receptor (Homo sapiens, UniProt P41145)
# Sequence (P41145 whole entry): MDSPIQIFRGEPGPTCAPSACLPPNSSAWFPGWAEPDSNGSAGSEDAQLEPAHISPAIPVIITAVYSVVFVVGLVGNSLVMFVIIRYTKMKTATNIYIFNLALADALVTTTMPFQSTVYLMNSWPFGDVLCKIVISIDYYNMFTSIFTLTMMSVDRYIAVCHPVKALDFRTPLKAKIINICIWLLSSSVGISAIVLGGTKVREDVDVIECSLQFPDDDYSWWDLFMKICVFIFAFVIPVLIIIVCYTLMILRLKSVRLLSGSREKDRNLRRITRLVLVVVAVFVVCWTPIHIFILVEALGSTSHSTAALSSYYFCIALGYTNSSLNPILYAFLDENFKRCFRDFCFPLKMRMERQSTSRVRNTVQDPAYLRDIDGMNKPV
# Test: κ opioid receptor agonist activity test in GTP binding activity measurement system ([35S]GTPγS binding)
# Type: biochemical
# Details: test compound concentration 10^−9 M; binding of 10^−6 M (−)-U50488 = 100%; human κ opioid receptor membrane preparation; average of duplicate
# Procedure: 1. κ Opioid Receptor Agonist Activity Tests in GTP Binding Activity Measurement System
# Jinmin Zhu et al. reported a method of evaluating agonist activities of drugs on a κ opioid receptor wherein guanosine 5′-triphosphate (GTP) radiolabelled with a human κ opioid receptor is used in J. Pharmaco. Exp. Ter., 282, 676–684 (1997). κ opioid receptor agonist activities (actions) of test compounds were evaluated according to the method described in the above-mentioned literature.
# N-2-Hydroxyethylpiperazine-N′-2-ethanesulfonic acid (HEPES, 4.77 g), magnesium chloride hexahydrate (2.03 g), sodium chloride (5.84 g), disodium […] (EDTA•2Na, 0.37 g), DL-dithiothreitol (DTT, 0.15 g) and bovine serum albumin (BSA, 1.0 g) were dissolved in ultrapure water, pH was adjusted to 7.4 with sodium hydroxide, and further ultrapure water was added to the mixture so that a total amount was one liter to prepare a incubation buffer.
# Nine volume of the incubation buffer was added to one volume of dimethyl sulfoxide (DMSO) to prepare a 10% DMSO-incubation buffer.
# Tris(hydroxymethyl)aminomethane hydrochloride (TRIZA-HCl, 66.1 g) and Tris(hydroxymethyl)aminomethane (TRIZA-Base, 9.7 g) were dissolved in ultrapure water so that a total amount was 10 liters to prepare a 50 mM Tris-hydrochloric acid buffer (pH 7.4).
# A human κ opioid receptor membrane preparation (100 unit/ml) was diluted 60 times with the incubation buffer under ice-cold to prepare a human κ opioid receptor membrane preparation solution. The membrane preparation solution was preserved under ice-cold.
# A test compound was dissolved in 100% DMSO to prepare a 10^−3 M test compound solution, and then the incubation buffer was added to the 10^−3 M test compound solution to prepare a 10^−4 M test compound solution. Next, the 10% dimethyl sulfoxide-incubation buffer was added to the 10^−4 M test compound solution to prepare a 10^−5 M, 10^−6 M, 10^−7 M, 10^−8 M or 10^−9 M test compound solution.
# A drug (−)-U50488 (J. Pharmacol. Exp. Ther., 224, 7–12 (1983)), which is known as a κ opioid receptor agonist, was used as a positive control drug in the tests.
# (−)-U-50488 was dissolved in 100% DMSO to prepare a 10^−3 M positive control drug solution, and then the incubation buffer was added to the 10^−3 M positive control drug solution to prepare a 10^−4 M positive control drug solution. Next, the 10% DMSO-incubation buffer was added to the 10^−4 M positive control drug solution to prepare a 10^−6 M positive control drug solution.
# GDP was dissolved in ultrapure water to prepare a 10^−3 M GDP solution, and the incubation buffer was added to the 10^−3 M GDP solution to prepare a 10^−5 M GDP solution.
# 10^−3 M [^35S]GTPγS was diluted with the incubation buffer to prepare 10^−9 M radiolabelled reagent.
# • 1. The incubation buffer (50 μl), the 10^−5 M GDP solution (50 μl), the human κ opioid receptor membrane preparation solution (300 μl), the test compound solution and the 10^−9 M radiolabelled reagent (50 μl) were put into a glass tube, and then the mixture was incubated at 30° C. for 60 minutes. • 2. The 50 mM Tris-hydrochloric acid buffer (pH 7.4) was added to the mixture to stop the reaction, the reaction mixture was suction-filtered with a GF/B filter, and then the residue on the GF/B filter was washed with the 50 mM Tris-hydrochloric acid buffer (3 ml) three times. • 3. The GF/B filter was air-dried, and then the residue on the GF/B filter was taken out with an antomatic dispenser and transfered into a vial. • 4. Scintisol EX-H (5 ml) was introduced into the vial to prepare a sample solution, and then radioactivity in the sample solution was measured with a liquid scintillation counter for one minute. The radioactivity was expressed in “cpm” (counts per minute). Calculation Formula of κ Opioid Receptor Agonist Activity
# Each agonist activity of the test compound on the κ opioid receptor was expressed in [^35S]GTPγS binding % when [^35S]GTPγS binding of 10^−6 M (−)-U50488 was 100%. […]
row,Compound,[^35S]GTP γ S binding % [%]
1,"COc1ccc(OCCCN(Cc2cccs2)C(C)C)c(C2Sc3cc(Cl)ccc3N2C(C)=O)c1 (single isomer, unassigned; (+)) [Compound No. 9-4, (+)-3-Acetyl-6-chloro-2-[2-(3-(N-isopropyl-N-(thiophen-2-ylmethyl)-amino)propoxy)-5-methoxyphenyl]benzothiazoline Hydrochloride]",72.1
2,"CCN(CCCOc1ccc(OC)cc1C1Sc2cc(Cl)ccc2N1C(C)=O)C(C)C (single isomer, unassigned; (+)) [Compound No. 9-10, (+)-3-Acetyl-6-chloro-2-[2-(3-(N-ethyl-N-isopropylamino)propoxy)-5-methoxyphenyl]benzothiazoline Hydrochloride]",116.8
3,"COc1ccc(OCCCN(C(C)C)C(C)C)c(C2Sc3cc(Cl)ccc3N2C(C)=O)c1 (single isomer, unassigned; (+)) [Compound No. 9-11, (+)-3-Acetyl-6-chloro-2-[2-(3-(N,N-diisopropylamino)propoxy)-5-methoxyphenyl]benzothiazoline Hydrochloride]",55.0
4,"COc1ccc(OCCCN(C)CCO)c(C2Sc3cc(Cl)ccc3N2C(C)=O)c1 (single isomer, unassigned; (+)) [Compound No. 9-16, (+)-3-Acetyl-6-chloro-2-[2-(3-(N-(2-hydroxyethyl)-N-methylamino)-propoxy)-5-methoxyphenyl]benzothiazoline Hydrochloride]",57.2
5,"COc1ccc(OCCCN(CCO)C(C)C)c(C2Sc3ccccc3N2C(C)=O)c1 (single isomer, unassigned; (+)) [Compound No. 11-3, (+)-3-Acetyl-2-[2-(3-(N-(2-hydroxyethyl)-N-isopropylamino)-propoxy)-5-methoxyphenyl]benzothiazoline Hydrochloride]",85.1
6,"COc1ccc(OCCCN(CCO)CC(C)C)c(C2Sc3cc(Cl)ccc3N2C(C)=O)c1 (stereo not drawn) [Compound No. 3-11, 3-Acetyl-6-chloro-2-[2-(3-(N-(2-hydroxyethyl)-N-(2-methylpropyl)-amino)propoxy)-5-methoxyphenyl]benzothiazoline Hydrochloride]",53.7
7,"COc1ccc(OCCCN2CCC[C@H]2CO)c(C2Sc3cc(Cl)ccc3N2C(C)=O)c1 (stereo partly drawn) [Compound No. 3-12, 3-Acetyl-6-chloro-2-[2-(3-((2S)-2-hydroxymethylazolan-1-yl)propoxy)-5-methoxyphenyl]benzothiazoline Hydrochloride]",75.6
8,"COc1ccc(OCCCN2CC[C@H](O)C2)c(C2Sc3cc(Cl)ccc3N2C(C)=O)c1 (stereo partly drawn) [Compound No. 3-14, 3-Acetyl-6-chloro-2-[2-(3-((3S)-hydroxyazolan-1-yl)propoxy)-5-methoxyphenyl]benzothiazoline Hydrochloride]",59.8
9,"COc1ccc(OCCCN(CCO)C(C)C)c(C2Sc3ccc(C(F)(F)F)cc3N2C(C)=O)c1 (stereo not drawn) [Compound No. 4-2, 3-Acetyl-2-[2-(3-(N-(2-hydroxyethyl)-N-isopropylamino)propoxy)-5-methoxyphenyl]-5-trifluoromethylbenzothiazoline Hydrochloride]",65.1

# Same assay, conditions: test compound concentration 10^−9 M; binding of 10^−6 M (−)-U50488 = 100%; human κ opioid receptor membrane preparation; average of duplicate; Hydrochloride
row,Compound,[^35S]GTP γ S binding % [%]
1,"COCCN(CCCOc1ccc(OC)cc1C1Sc2cc(Cl)ccc2N1C(C)=O)C(C)C.Cl (single isomer, unassigned; (+)) [Compound No. 9-1, (+)-3-Acetyl-6-chloro-2-[2-(3-(N-isopropyl-N-(2-methoxyethyl)amino)-propoxy)-5-methoxyphenyl]benzothiazoline Hydrochloride]",93.2
2,"COc1ccc(OCCCN(CCO)C(C)C)c(C2Sc3cc(Cl)ccc3N2C(C)=O)c1 (single isomer, unassigned; (+)) [Compound No. 9-2, (+)-3-Acetyl-6-chloro-2-[2-(3-(N-(2-hydroxyethyl)-N-isopropylamino)-propoxy)-5-methoxyphenyl]benzothiazoline Hydrochloride]",103.9
3,"CCOCCN(CCCOc1ccc(OC)cc1C1Sc2cc(Cl)ccc2N1C(C)=O)C(C)C (single isomer, unassigned; (+)) [Compound No. 9-3, (+)-3-Acetyl-6-chloro-2-[2-(3-(N-(2-ethoxyethyl)-N-isopropylamino)-propoxy)-5-methoxyphenyl]benzothiazoline Hydrochloride]",117.5
4,"COc1ccc(OCCCN(Cc2ccco2)C(C)C)c(C2Sc3cc(Cl)ccc3N2C(C)=O)c1 (single isomer, unassigned; (+)) [Compound No. 9-5, (+)-3-Acetyl-6-chloro-2-[2-(3-(N-(furan-2-ylmethyl)-N-isopropylamino)propoxy)-5-methoxyphenyl]benzothiazoline Hydrochloride]",132.5
5,"COCCN(CCCOc1ccc(OC)cc1C1Sc2cc(Cl)ccc2N1C(C)=O)C(C)C.Cl (single isomer, unassigned; (-)) [Compound No. 10-1, (−)-3-Acetyl-6-chloro-2-[2-(3-(N-isopropyl-N-(2-methoxyethyl)amino)-propoxy)-5-methoxyphenyl]benzothiazoline Hydrochloride]",50.5
6,"COc1ccc(OCCCN(CCO)C(C)C)c(C2Sc3cc(Cl)ccc3N2C(C)=O)c1 (single isomer, unassigned; (-)) [Compound No. 10-2, (−)-3-Acetyl-6-chloro-2-[2-(3-(N-(2-hydroxyethyl)-N-isopropylamino)-propoxy)-5-methoxyphenyl]benzothiazoline Hydrochloride]",65.8
7,"CCOCCN(CCCOc1ccc(OC)cc1C1Sc2cc(Cl)ccc2N1C(C)=O)C(C)C (single isomer, unassigned; (-)) [Compound No. 10-3, (−)-3-Acetyl-6-chloro-2-[2-(3-(N-(2-ethoxyethyl)-N-isopropylamino)-propoxy)-5-methoxyphenyl]benzothiazoline Hydrochloride]",55.7
8,"COc1ccc(OCCCN(Cc2ccco2)C(C)C)c(C2Sc3cc(Cl)ccc3N2C(C)=O)c1 (stereo not drawn) [Compound No. 3-38, 3-Acetyl-6-chloro-2-[2-(3-(N-(furan-2-ylmethyl)-N-isopropylamino)-propoxy)-5-methoxyphenyl]benzothiazoline Hydrochloride]",58.4

# Same assay, conditions: test compound concentration 10^−9 M; binding of 10^−6 M (−)-U50488 = 100%; human κ opioid receptor membrane preparation; average of duplicate; read-out: [^35S]GTP γ S binding %
row,Compound,activation at 0.001 µM [%]
1,"COCCN(CCCOc1ccc(OC)cc1C1Sc2ccccc2N1C(C)=O)C(C)C (stereo not drawn) [Compound No. 8-1, 3-Acetyl-2-[2-(3-(N-isopropyl-N-(2-methoxyethyl)amino)propoxy)-5-methoxyphenyl]benzothiazoline Hydrochloride]",103
